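Dose response: 5 concentrations. Exposure: 48 h. Format: 96-well plates. Endpoint: linear interpolation; highest concentration if not reached. GI50: concentration for 50% inhibition of growth. Definition used: TGI = concentration required for complete inhibition of growth.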
Key:
Assay in all cases: DTP human tumour cell line panel, 48 h
A498 renal = tested on: A498 renal
ACHN renal = tested on: ACHN renal
BT-549 breast = tested on: BT-549 breast
EKVX NSCLC = tested on: EKVX NSCLC
HL-60(TB) leukemia = tested on: HL-60(TB) leukemia
HOP-62 NSCLC = tested on: HOP-62 NSCLC
MDA-MB-231 breast = tested on: MDA-MB-231 breast
NCI-H522 lung = tested on: NCI-H522 lung
OVCAR-8 ovarian = tested on: OVCAR-8 ovarian
PC-3 prostate = tested on: PC-3 prostate
SK-MEL-28 melanoma = tested on: SK-MEL-28 melanoma

NS(=O)(=O)c1ccc(NC(=O)N/N=C/c2ccccc2O)cc1
TGI (A498 renal): > 100 µM
TGI (ACHN renal): > 100 µM
TGI (BT-549 breast): > 100 µM
TGI (EKVX NSCLC): > 100 µM
TGI (HL-60(TB) leukemia): > 100 µM
TGI (HOP-62 NSCLC): > 100 µM
TGI (MDA-MB-231 breast): > 100 µM
TGI (NCI-H522 lung): > 100 µM
TGI (OVCAR-8 ovarian): > 100 µM
TGI (PC-3 prostate): > 100 µM
TGI (SK-MEL-28 melanoma): > 100 µM

CC(C)C1CNC(=O)C2(C=NC(C(C)C)CNC(=O)C3(C=N1)CCCO3)CCCO2 (stereo unspecified)
TGI (A498 renal): > 10 µM
TGI (ACHN renal): > 10 µM
TGI (BT-549 breast): > 10 µM
TGI (EKVX NSCLC): > 10 µM
TGI (HL-60(TB) leukemia): > 10 µM
TGI (HOP-62 NSCLC): > 10 µM
TGI (MDA-MB-231 breast): > 10 µM
TGI (NCI-H522 lung): > 10 µM
TGI (OVCAR-8 ovarian): > 10 µM
TGI (PC-3 prostate): > 10 µM
TGI (SK-MEL-28 melanoma): > 10 µM

O=C(NCCN1CCCCC1)c1ccc(Br)cc1
TGI (A498 renal): > 100 µM
TGI (ACHN renal): > 100 µM
TGI (BT-549 breast): > 100 µM
TGI (EKVX NSCLC): > 100 µM
TGI (HL-60(TB) leukemia): > 100 µM
TGI (HOP-62 NSCLC): > 100 µM
TGI (MDA-MB-231 breast): > 100 µM
TGI (NCI-H522 lung): > 100 µM
TGI (OVCAR-8 ovarian): > 100 µM
TGI (PC-3 prostate): > 100 µM
TGI (SK-MEL-28 melanoma): > 100 µM

CS(=O)(=O)N1CC(CCl)c2ccc(NO)cc21 (stereo unspecified)
TGI (A498 renal): 31.5 µM
TGI (ACHN renal): 21 µM
TGI (BT-549 breast): 25.1 µM
TGI (EKVX NSCLC): 32.5 µM
TGI (HL-60(TB) leukemia): 20 µM
TGI (HOP-62 NSCLC): 47.4 µM
TGI (MDA-MB-231 breast): 30.5 µM
TGI (NCI-H522 lung): 16.3 µM
TGI (OVCAR-8 ovarian): 27.9 µM
TGI (PC-3 prostate): 39.5 µM
TGI (SK-MEL-28 melanoma): 40.3 µM

COC1(CC[C@@H](C)COC2OC(CO)C(O)C(O)C2O)O[C@H]2C[C@H]3[C@@H]4CC=C5C[C@@H](OC6OC(CO)C(OC7OC(C)C(O)C(O)C7O)C(O)C6OC6OC(C)C(O)C(O)C6O)CC[C@]5(C)[C@H]4CC[C@]3(C)[C@H]2[C@@H]1C (stereo partly specified)
GI50 (A498 renal): 3.86 µM
TGI (A498 renal): 9.76 µM
GI50 (ACHN renal): 6.24 µM
TGI (ACHN renal): 13.9 µM
GI50 (BT-549 breast): 2.58 µM
TGI (BT-549 breast): 6.81 µM
GI50 (EKVX NSCLC): 10 µM
TGI (EKVX NSCLC): 33.3 µM
GI50 (HL-60(TB) leukemia): 3.47 µM
TGI (HL-60(TB) leukemia): 13.4 µM
TGI (HOP-62 NSCLC): 4.04 µM
TGI (MDA-MB-231 breast): 6.66 µM
TGI (NCI-H522 lung): 4.23 µM
GI50 (OVCAR-8 ovarian): 2.39 µM
TGI (OVCAR-8 ovarian): 8.47 µM
TGI (PC-3 prostate): 9.58 µM
GI50 (SK-MEL-28 melanoma): 2.26 µM
TGI (SK-MEL-28 melanoma): 5.53 µM

COc1ccc(Nc2nc3ccccc3n3cccc23)cc1OC
TGI (A498 renal): 55.8 µM
TGI (ACHN renal): 69.7 µM
TGI (BT-549 breast): 49.3 µM
TGI (EKVX NSCLC): 68.5 µM
TGI (HL-60(TB) leukemia): 9.51 µM
TGI (HOP-62 NSCLC): 32.7 µM
TGI (MDA-MB-231 breast): 40.1 µM
TGI (NCI-H522 lung): 31.2 µM
TGI (OVCAR-8 ovarian): 29.5 µM
TGI (PC-3 prostate): 23.9 µM
TGI (SK-MEL-28 melanoma): 28.9 µM

O=C1NC2NC3NC(=O)NC3NC2N1 (stereo unspecified)
TGI (A498 renal): > 100 µM
TGI (ACHN renal): > 100 µM
TGI (BT-549 breast): > 100 µM
TGI (EKVX NSCLC): > 100 µM
TGI (HL-60(TB) leukemia): > 100 µM
TGI (HOP-62 NSCLC): > 100 µM
TGI (MDA-MB-231 breast): > 100 µM
TGI (NCI-H522 lung): > 100 µM
TGI (OVCAR-8 ovarian): > 100 µM
TGI (PC-3 prostate): > 100 µM
TGI (SK-MEL-28 melanoma): > 100 µM

COc1ccc(-n2c(CCC(=O)O)nc3c2C(=O)c2ccccc2C3=O)cc1
TGI (A498 renal): > 100 µM
TGI (ACHN renal): > 100 µM
TGI (BT-549 breast): > 100 µM
TGI (EKVX NSCLC): > 100 µM
TGI (HL-60(TB) leukemia): > 100 µM
TGI (HOP-62 NSCLC): > 100 µM
TGI (MDA-MB-231 breast): > 100 µM
TGI (NCI-H522 lung): > 100 µM
TGI (OVCAR-8 ovarian): > 100 µM
TGI (PC-3 prostate): > 100 µM
TGI (SK-MEL-28 melanoma): > 100 µM

Cc1c(C)c2c(c(N)c1C#N)C(=O)N(O)C2=O
TGI (A498 renal): > 100 µM
TGI (ACHN renal): > 100 µM
TGI (BT-549 breast): > 100 µM
TGI (EKVX NSCLC): > 100 µM
TGI (HL-60(TB) leukemia): > 100 µM
TGI (MDA-MB-231 breast): > 100 µM
TGI (NCI-H522 lung): > 100 µM
TGI (OVCAR-8 ovarian): > 100 µM
TGI (PC-3 prostate): > 100 µM
TGI (SK-MEL-28 melanoma): > 100 µM

CC(CSC(=N)N)C(N)=O (stereo unspecified)
TGI (A498 renal): > 100 µM
TGI (ACHN renal): > 100 µM
TGI (BT-549 breast): > 100 µM
TGI (EKVX NSCLC): > 100 µM
TGI (HL-60(TB) leukemia): > 100 µM
TGI (HOP-62 NSCLC): > 100 µM
TGI (MDA-MB-231 breast): > 100 µM
TGI (NCI-H522 lung): > 100 µM
TGI (OVCAR-8 ovarian): > 100 µM
TGI (PC-3 prostate): > 100 µM
TGI (SK-MEL-28 melanoma): > 100 µM

CCN(CC)CCCNc1c2c(Cl)cc(Cl)cc2nc2nc(=O)[nH]c(C)c12
TGI (A498 renal): > 100 µM
TGI (ACHN renal): > 100 µM
TGI (BT-549 breast): > 100 µM
TGI (EKVX NSCLC): > 100 µM
TGI (HL-60(TB) leukemia): > 100 µM
TGI (HOP-62 NSCLC): 64.7 µM
TGI (MDA-MB-231 breast): 33.8 µM
TGI (NCI-H522 lung): 46.9 µM
TGI (OVCAR-8 ovarian): > 10 µM
TGI (PC-3 prostate): > 100 µM
TGI (SK-MEL-28 melanoma): 95.2 µM

CN(C)c1ccc(/C=C/C(=O)c2ccc(O)cc2)cc1
TGI (A498 renal): > 65.7 µM
TGI (ACHN renal): 61.3 µM
TGI (BT-549 breast): > 59 µM
TGI (EKVX NSCLC): > 100 µM
TGI (HL-60(TB) leukemia): 5.57 µM
TGI (HOP-62 NSCLC): > 100 µM
TGI (MDA-MB-231 breast): > 91.5 µM
TGI (NCI-H522 lung): 8.58 µM
TGI (OVCAR-8 ovarian): > 100 µM
TGI (PC-3 prostate): 63.2 µM
TGI (SK-MEL-28 melanoma): > 100 µM

C[C@@H](CC(O)C(O)C(C)(C)O)C1CCC23CC12CCC1[C@@]2(C)CCC(O)C(C)(C)C2CC(OC2OC(CO)C(O)C(O)C2O)[C@]13C (stereo partly specified)
TGI (A498 renal): > 10 µM
TGI (ACHN renal): > 10 µM
TGI (BT-549 breast): > 10 µM
TGI (EKVX NSCLC): > 10 µM
TGI (HL-60(TB) leukemia): > 10 µM
TGI (HOP-62 NSCLC): > 10 µM
TGI (MDA-MB-231 breast): > 10 µM
TGI (NCI-H522 lung): > 10 µM
TGI (OVCAR-8 ovarian): > 10 µM
TGI (PC-3 prostate): > 10 µM
TGI (SK-MEL-28 melanoma): > 10 µM

COc1ccc(C2c3cc4c(cc3OC(NNc3ccccc3)C2C)OCO4)cc1 (stereo unspecified)
TGI (A498 renal): 76.9 µM
TGI (ACHN renal): 49.5 µM
TGI (BT-549 breast): 76.1 µM
TGI (EKVX NSCLC): 24.3 µM
TGI (HL-60(TB) leukemia): 20.8 µM
TGI (HOP-62 NSCLC): 20.2 µM
TGI (MDA-MB-231 breast): > 100 µM
TGI (NCI-H522 lung): 94.6 µM
TGI (OVCAR-8 ovarian): 63.5 µM
TGI (PC-3 prostate): > 100 µM
TGI (SK-MEL-28 melanoma): > 100 µM

C1CNOCCCONCCCNOCCCONC1
TGI (A498 renal): > 100 µM
TGI (ACHN renal): > 100 µM
TGI (BT-549 breast): > 100 µM
TGI (EKVX NSCLC): > 100 µM
TGI (HL-60(TB) leukemia): > 100 µM
TGI (HOP-62 NSCLC): > 100 µM
TGI (MDA-MB-231 breast): 79.6 µM
TGI (NCI-H522 lung): > 100 µM
TGI (OVCAR-8 ovarian): > 100 µM
TGI (PC-3 prostate): 86 µM
TGI (SK-MEL-28 melanoma): > 100 µM
